Reference: patent publication US10391201B2, “Gene therapy” (Ospedale San Raffaele S.r.l., priority 2014, dated 2019)

What was measured:
[1] = tested on: bone marrow (BM)-derived CD34+ cells; type: cell-based, human
Description: (§1) Human CB and BM-derived haematopoietic stem/progenitor cells (HSPC) were cultured in serum-free StemSpan medium (StemCell Technologies) supplemented with 100 ng/mL recombinant human stem cell factor (rhSCF), 20 ng/mL recombinant human thrombopoietin (rhTPO), 100 ng/mL recombinant human Flt3 ligand (rhFlt3) and 20 ng/mL recombinant human IL6 (rhIL6) (all from Peprotech) 16 to 24 hours prior to transduction. HSPC were then transduced at a concentration of 1×10^6 cells per mL with vesicular stomatitis virus glycoprotein (VSV-G)-pseudotyped SINLV for 20 hours at the indicated multiplicity of infection (MOI) in the same medium. After transduction, cells were washed and maintained serum-free StemSpan supplemented with cytokines as above until the reading of GFP-positive (GFP+) cells by FACS. After FACS they were maintained in Roswell Park Memorial Institute medium (RPMI, Lonza) supplemented with 10% FBS, 25 ng/mL rhSCF, 5 ng/mL rhIL6, 25 ng/mL rhFlt3 and 5 ng/mL rhTPO for another seven days before analysis of vector copy numbers. MDM were transduced 7 days after differentiation. T lymphocytes were transduced at a concentration of 10^6 cells per mL, after 3 days of stimulation. All the cells were exposed to the vector for 16-20 hours.
(§2) They were added to the transduction medium at the indicated concentration and washed out with the vector 16-20 hours later.
(§3) GFP expression in transduced cells was measured 5-7 days post-transduction. Adherent MDM were detached by scraping in 5 mM PBS-EDTA, washed and resuspended in PBS containing 2% FBS. Cells grown in suspension were washed and resuspended in PBS containing 2% FBS. To exclude dead cells from the analysis, 10 ng/mL 7-aminoactinomycin D (7-AAD) was added.
(§4) DNA from cell cultures was extracted using a Maxwell 16 instrument (Promega) or Blood & Cell Culture DNA Micro Kit (Qiagen). To amplify the vector sequence, primers and probes complementary to the vector Rev responsive element sequence were used. Vector copy numbers and replication intermediates were normalised to genomic DNA content, which was assessed using the human TERT gene. Quantitative polymerase chain reaction (qPCR) primers and probe sequences and conditions were previously described (Santoni de Sio, F. R. et al (2006) Blood 107: 4257-65).

[2] = tested on: cord blood (CB)-derived CD34+ cells; type: cell-based, human
Description: as §1, §2, §3, §4

CO[C@H]1C[C@@H]2CC[C@@H](C)[C@@](O)(O2)C(=O)C(=O)N2CCCC[C@H]2C(=O)O[C@H]([C@H](C)C[C@@H]2CC[C@@H](O)[C@H](OC)C2)CC(=O)[C@H](C)/C=C(\C)[C@@H](O)[C@@H](OC)C(=O)[C@H](C)C[C@H](C)/C=C/C=C/C=C/1C [rapamycin, Rapamycin]
increase in the percentage of GFP+ cells [1]: 2 fold
increase in the percentage of GFP+ cells [2]: 2 fold
transduction efficiency in titration of Rapa ([2]; 10 μg/ml vs lower doses, MOI 1 (FIG. 28)): improved transduction efficiency over lower doses
GFP+ cells with clinical grade SINLV ([2]; CB-derived CD34+ cells, clinical grade PGK-GFP SINLV, MOI of 10 (FIG. 25A)): up to 60%
transduction efficiency of WT and CA mutant vectors ([2]; CD34+ cells, SINLVs with single CA point mutations MOI 1, vs DMSO (FIG. 14B)): increased efficiency for all CA mutants
transduction levels in all HSPC subpopulations ([2]; CD34− progenitors to CD34+CD133+CD90+ cells, FACS three days after transduction (FIG. 15C)): equally improved transduction levels
